Measurements reported in paper PMC12687424, “Penetrant PKCβ mutation in ATLL displays a mixed gain-of-function” (Biochemical Journal, 2025).

Key:
[1] = molecular target: D427N PKCβII catalytic domain; assay: Fluorescence polarisation binding of fluorescein-PSS peptide, D427N; conditions: catalytic domains
Procedure: Figure 3 D427N PKCβII has an altered substrate repertoire in vitro . A–D – Representative titration curves from assays of WT or D427N PKCβII catalytic domains with excess ATP and titrations of either histone type III-S, MBP, PSS peptide or BTK S180 peptide. Specific activity in nmol/min/mg was calculated using an ADP standard curve. Error bars indicate the mean ± SD from three technical replicates. E and F – Km and Vmax values of WT and D427N PKCβII catalytic domains for each substrate, obtained from Michaelis–Menten fits of titration curves in (A-D). Error bars indicate the mean ± SD from three independent assays (*=P<0.05, **=P<0.01 versus WT by t-test with Holm–Šídák correction for multiple comparisons). G – Representative binding curves of anisotropy vs protein concentration when WT or D427N PKCβII catalytic domains were titrated into fluorescein–PSS peptide; KD values are shown ± the error of the fit. […] H – Differential heat map of WT and D427N PKCβII activity towards a PamChip microarray, calculated from log2 fold change values relative to a no ATP control array. […] The measured ligand is the PSS peptide, and WT and D427N are protein variants.
Fluorescence polarisation (FP) experiments were performed using an FP-8500 spectrofluorometer (Jasco). […] Equilibrium dissociation constants were determined by plotting anisotropy as a function of PKCβII catalytic domain concentration. […]

[2] = system: D427N PKCβII catalytic domain; assay: ADP-Glo in vitro kinase assay with ATP-competitive inhibitors, D427N compared with WT; assay type: biochemical; conditions: 50 μM ATP, 200 μM PSS peptide; IC50 of D427N higher than WT
Procedure: Given the proximity of the mutation to the nucleotide pocket of the kinase, we compared the potency of three ATP-competitive inhibitors in WT and D427N PKCβII to assess if existing PKC inhibitors could be used to target the mutant. We assayed WT and D427N PKCβII catalytic domains at 50 μM ATP with one indolocarbazole inhibitor (UCN-01) and two bisindolylmaleimide inhibitors (BIM-1 and the PKCβ-specific inhibitor ruboxistaurin) (Figure 5A–C). […] These differences were 17-fold for ruboxistaurin, 9-fold for BIM-1 and 25-fold for UCN-01.
Figure 5 Pharmacology of D427N PKCβII. A–C – Representative dose-response curves when WT and D427N PKCβII catalytic domains were assayed with the indicated inhibitors, 50 μM ATP and 200 μM PSS peptide. ADP produced in the assays was measured by luminescence and converted to specific activity using an ADP standard curve. Error bars indicate the mean ± SD from three technical replicates. D – IC50 values obtained from fitting curves in (A-C). Error bars indicate the mean ± SD from three independent dose-response assays (*=P<0.05, **=P<0.01 versus WT by t-test with Holm–Šídák correction for multiple comparisons). E,F – Orthogonal views of Ruboxistaurin (pink) in the PKCβII nucleotide-binding pocket (cyan). A σA-weighted |2Fo-Fc| map is shown contoured at 1.5 σ. The location of the N427 side chain is indicated. Figure was generated using UCSF ChimeraX.
Kinase assays were carried out in white, 384-well OptiPlates (PerkinElmer) using an ADP-Glo kit (Promega) on a scale of […] for the kinase reaction. Kinase was diluted in assay buffer (40 mM Tris-HCl pH 7.5, 20 mM MgCl2, 0.1 mg/ml BSA (NEB, #B9000S), 1 mM DTT) and added to the plate (typically 0.5–1 ng/well). The assay was started by adding the substrates at a final concentration of 50–300 μM [ATP and either histone type III-S (Sigma, #H5505), MBP (Sigma, #M1891), or a peptide]. […] Luminescence was recorded using an EnSight MultiMode Plate Reader (PerkinElmer), and the slope of a standard curve was used to convert luminescence values to specific activity in nmol ADP/min/mg.

| binding affinity of D427N PKCβII relative to WT (from KD values) [1] | difference in IC50, D427N PKCβII catalytic domain versus WT [2] [fold] | Structure (SMILES) |
| --- | --- | --- |
| two-fold weaker affinity than WT |  | CC(C)C[C@H](NC(=O)[C@H](CO)NC(=O)CNC(=O)[C@H](CCCCN)NC(=O)[C@H](CCCNC(=N)N)NC(=O)[C@H](C)NC(=O)[C@H](Cc1ccccc1)NC(=O)[C@H](CCCNC(=N)N)NC(=O)[C@@H](NC(=O)[C@@H](NC(=O)[C@H](CO)NC(=O)[C@H](CCC(=O)O)NC(=O)c1ccc2c(c1)C(=O)OC21c2ccc(O)cc2Oc2cc(O)ccc21)[C@@H](C)O)C(C)C)C(=O)N[C@@H](CCCNC(=N)N)C(=O)N[C@@H](CCC(N)=O)C(=O)N[C@@H](CCCCN)C(=O)N[C@@H](CC(N)=O)C(=O)N[C@H](C(=O)N[C@@H](Cc1c[nH]cn1)C(N)=O)C(C)C |
|  | 9 | CN(C)CCCn1cc(C2=C(c3c[nH]c4ccccc34)C(=O)NC2=O)c2ccccc21 [BIM-1] |
|  | 17 | CN(C)C[C@@H]1CCn2cc(c3ccccc32)C2=C(C(=O)NC2=O)c2cn(c3ccccc23)CCO1 [ruboxistaurin] |

| Structure (SMILES) | binding affinity of D427N PKCβII relative to WT (from KD values) [1] | difference in IC50, D427N PKCβII catalytic domain versus WT [2] [fold] |
| --- | --- | --- |
| CNC1CC2OC(C)(C1OC)n1c3ccccc3c3c4c(c5c6ccccc6n2c5c31)C(=O)NC4O (stereo not shown) [UCN-01] |  | 25 |
